From the supplement of paper PMC8671470

Columns and labels:
Assay in all cases: cell viability (% survival relative to DMSO control, bortezomib = 0%); higher = less cytotoxic
Conditions in all cases: 72 h
[1] = test system: BV-173
In short: (§1)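 After 72 h at 37 °C with 5% CO2, cell viability in 384-well plates was measured by CellTiter-Glo luminescence. The plates held compounds pre-printed at 1, 10, 100, 1000 or 10000 nM in duplicate, and cells from 10 AML and 5 CML lines seeded at densities titrated to linear growth. Percent survival is the duplicate mean, normalised to vehicle as 100% and a 10 µM positive control as 0%.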

[2] = test system: Mono-Mac-6
In short: as §1

[3] = test system: SHI-1
In short: as §1

[4] = test system: KU-812
In short: as §1

Compound | cell viability ([1]; 1 nM) [%] | cell viability ([1]; 10 nM) [%] | cell viability ([1]; 100 nM) [%] | cell viability ([1]; 1000 nM) [%] | cell viability ([1]; 10000 nM) [%] | cell viability ([2]; 1 nM) [%] | cell viability ([2]; 10 nM) [%] | cell viability ([2]; 100 nM) [%] | cell viability ([2]; 1000 nM) [%] | cell viability ([2]; 10000 nM) [%] | cell viability ([3]; 1 nM) [%] | cell viability ([3]; 10 nM) [%] | cell viability ([3]; 100 nM) [%] | cell viability ([3]; 1000 nM) [%] | cell viability ([3]; 10000 nM) [%] | cell viability ([4]; 1 nM) [%] | cell viability ([4]; 10 nM) [%] | cell viability ([4]; 100 nM) [%] | cell viability ([4]; 1000 nM) [%] | cell viability ([4]; 10000 nM) [%]
CC(Cc1ccc(O)c(O)c1)C(C)Cc1ccc(O)c(O)c1 (stereo not given) [Masoprocol] | 104 | 88.1 | 101 | 104 | 5.25 | 86.6 | 109 | 102 | 84.2 | 22.8 | 97.1 | 96.2 | 118 | 93.3 | 70.1 | 102 | 94.3 | 102 | 102 | 59.4
N[C@](CCCCB(O)O)(CCN1CCCCC1)C(=O)O [Arginase inhibitor 1] | 141 | 77 | 90.8 | 88.5 | 96.1 | 101 | 83.8 | 93.1 | 93.8 | 94.5 | 92 | 105 | 90.1 | 110 | 92.8 | 102 | 84.6 | 85.6 | 108 | 89.4
[N-]=[N+]=CC(=O)CC[C@H](N)C(=O)O [6-Diazo-5-oxo-L-norleucine] | 94.8 | 89.6 | 107 | 93.4 | 96.5 | 88 | 90.2 | 92.4 | 97.8 | 104 | 110 | 101 | 103 | 104 | 99 | 95 | 102 | 110 | 97.3 | 104
O=C(COc1ccc(C(=O)c2ccccc2)cc1)NC1CCN(Cc2ccccc2)CC1 [AdipoRon] | 84 | 105 | 96.7 | 87 | 52.9 | 96.3 | 101 | 99.9 | 98.1 | 90.7 | 92.5 | 104 | 96 | 103 | 71.7 | 94.6 | 114 | 90.9 | 98.3 | 41.5
CCN(CC)CCN(Cc1ccc(-c2ccc(C(F)(F)F)cc2)cc1)C(=O)Cn1c(SCc2ccc(F)cc2)nc(=O)c2c1CCC2 [Darapladib] | 100 | 88.7 | 94.3 | 79.1 | -0.184 | 97 | 90.9 | 101 | 93.3 | -0.318 | 107 | 107 | 97.4 | 90.6 | -0.412 | 110 | 93.6 | 100 | 80.7 | -0.56
O=C1Nc2ccccc2/C1=C\NCCc1ccc(O)c(O)c1 [AC1NZZMF] | 99.7 | 103 | 104 | 94.1 | 60.9 | 105 | 102 | 102 | 96.9 | 74.4 | 88.8 | 108 | 89 | 103 | 90.8 | 114 | 113 | 108 | 110 | 68.7
CCOC(=O)[C@@]1(CCCCCCOc2ccc(Cl)cc2)CO1 [Etomoxir] | 94.8 | 105 | 88.8 | 64.8 | 57.8 | 93.5 | 94.4 | 92.9 | 95.7 | 96.3 | 107 | 108 | 110 | 105 | 104 | 91.3 | 110 | 93.5 | 82.7 | 60.8
Cc1ccc(S(=O)(=O)NC2c3ccccc3Oc3ccccc32)cc1 [AH-7614] | 87.1 | 91.2 | 102 | 98.4 | 104 | 101 | 95.7 | 111 | 94.9 | 101 | 105 | 110 | 105 | 97.1 | 85.5 | 93.7 | 101 | 99.1 | 97.7 | 106
O=P(O)(O)C(O)(Cn1ccnc1)P(=O)(O)O [Zoledronic acid] | 101 | 109 | 88.8 | 97 | 99 | 96.7 | 104 | 91.1 | 91 | 96.7 | 108 | 116 | 102 | 100 | 104 | 96.1 | 95.7 | 95.9 | 94.6 | 92.7
c1ccc2c(c1)OCC(=C1NCCN1)O2 [Idazoxan] | 87.3 | 108 | 80.7 | 89.3 | 73.2 | 102 | 106 | 91.1 | 89.1 | 102 | 105 | 103 | 89.8 | 101 | 95.1 | 105 | 108 | 96.5 | 91.8 | 105
C[C@]12CC[C@H](O)CC1=CC[C@@H]1[C@@H]2CC[C@]2(C)C(c3cccnc3)=CC[C@@H]12 [Abiraterone] | 91.8 | 96.8 | 93.5 | 116 | 108 | 97.7 | 101 | 85.2 | 96.1 | 108 | 119 | 108 | 106 | 108 | 112 | 88.8 | 94.8 | 101 | 108 | 101
